Literature values, collected in article PMC4562162 (CPT: Pharmacometrics & Systems Pharmacology, 2015).

Test system: CETP

CCC(CC)CC1(C(=O)Nc2ccccc2SC(=O)C(C)C)CCCCC1 [Dalcetrapib]
effect on LDL-C levels: minimal effects on LDL-C levels
